For one data set, the system named is A549 cells. Description: Cell cycle analysis (flow cytometry, PI staining). The data set is classed as cell-based, human. The protocol: The effect of compound 12b on cell cycle distribution was performed using the propidium iodide (PI) staining technique as described in Supplementary data[56–58]. […]
4.1.2. In-vitro DNA-Flow cytometric (cell cycle) analysis.
h. Then, the tested cells were collected by trypsinization and washed in PBS. Ice-cold absolute
ethanol was used for fixation of the collected cells. The cells were stained with Cycle TESTTM
PLUS DNA Reagent Kit (BD Biosciences, San Jose, CA) according to the manufacturer's
instructions. Cell-cycle distribution was evaluated using a flow cytometer. […]
(In general: In flow cytometry, cells or beads pass a laser one at a time.)

The next data set in a line: in vitro. Conditions: human, WI-38 normal cells.
[1] abbreviates: A549, 8.21 µM, 48 h, mean ± SEM.
Setting [2] is: A549, 8.21 µM, 48 h, mean ± SEM, listed as 12 b.

Experimental for in vitro: In vitro antiproliferative activities
The in vitro antiproliferative activities of all the synthesized compounds against two human
evaluated quantitatively as described in the literature, using MTT assay protocol . two
proliferative activity was assessed quantitatively as follows.
Human cancer cell lines were dropped in 96 -well plates at a density of 3-8 × 10^3 cells/well.
Next, the wells were incubated for 12 h in a 5% CO 2 incubator at 37 °C. Then, for each well, the growth medium was exchanged with 0.1 ml of fresh medium containing graded concentrations of the test compounds to be or equal DMSO and incubated for two days. Then 10 μl MTT solution (5 μg/ml) was added to each well, and the cells were incubated for additional 4 h. The crystals of MTT-formazan were dissolved in 100 μl of DMSO; the absorbance of each well was measured at 490 nm using an automatic ELISA reader system (TECAN, CHE). The IC 50 values were calculated using the nonlinear regression fitting models (Graph Pad, Prism Version 5). The data represented the mean of three independent experiments in triplicate and were expressed as means ± SD.
The results were expressed as growth inhibitory concentration (IC50) values and

With `CC(=NNc1nc(Nc2ccccc2)nc2c1cnn2-c1ccccc1)c1ccc(Cl)cc1` [Compound 12b, 4–(2-(1–(4-Chlorophenyl)ethylidene)hydrazinyl)-N,1-diphenyl-1H-pyrazolo[3,4-d]pyrimidin-6-amine], the “cell cycle arrest, phases” value with A549 cells (A549) is “S and G2/M phases”. For the same compound, in the data set on A549 cells (setting [1]), the “Cell cycle distribution % G2/M” value amounted to 28.55%, the “Cell cycle distribution %G1” value was 28.04%, the “Cell cycle distribution %S” value was 42.39% and the “Cell cycle distribution %Sub-G1” value worked out at 0.89 ± 0.31%. For the same compound, in the data set with A549 cells (setting [2]), the “Cell cycle distribution % G2/M” value amounted to 28.55 ± 1.61 %, the “Cell cycle distribution %G1” value was determined as 28.04 ± 2.78 % and the “Cell cycle distribution %S” value is 42.39 ± 3.50 %. Besides, in the data set with A549 cells (vs untreated A549, 48 h), the “fold decrease in percentage of cells in G1 phase” value is roughly 2 fold, the “fold increase in % G2/M” value was found to be 1.7 fold and the “fold increase in percentage of cells in S phase” value was determined as 1.5 fold. In “in vitro”, this compound came in with an IC50 at 2 days of 39.1 µM.

As usually defined, the IC50 is the concentration that inhibits the measured activity by half.
